Biological target: T1, RXFP3 (h) (Homo sapiens, UniProt Q9NSD7)
T1 sequence (Q9NSD7 1-469): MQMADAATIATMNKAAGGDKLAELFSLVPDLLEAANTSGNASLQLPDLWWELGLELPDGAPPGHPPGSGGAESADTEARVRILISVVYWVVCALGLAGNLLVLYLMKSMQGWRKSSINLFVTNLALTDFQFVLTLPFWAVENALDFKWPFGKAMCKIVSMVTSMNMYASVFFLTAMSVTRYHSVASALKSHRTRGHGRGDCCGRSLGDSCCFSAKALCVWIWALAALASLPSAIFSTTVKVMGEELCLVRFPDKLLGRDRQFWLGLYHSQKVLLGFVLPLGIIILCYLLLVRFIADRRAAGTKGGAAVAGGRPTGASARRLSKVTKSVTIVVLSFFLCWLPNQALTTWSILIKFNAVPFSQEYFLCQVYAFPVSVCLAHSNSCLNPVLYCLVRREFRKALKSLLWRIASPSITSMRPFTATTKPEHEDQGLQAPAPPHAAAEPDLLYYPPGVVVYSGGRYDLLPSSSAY
Assay: RXFP3 assay (Eurofins/LeadHunter, cAMP Hunter GPCR Biosensor)
Assay type: cell-based
Method: Melafenoxate is found to weakly bind with RXFP3 and RXFP4 receptors (Study FR095-0024749-Q Eurofins/leadHunter Jun. 25, 2021; unpublished data).
In these assays' compounds were tested in agonist and antagonist mode with the GPCR Biosensor Assays and match to this design:
• 1. CAMP Hunter cell lines were expanded from freezer stocks according to standard procedures. • 2. Cells were seeded in a total volume of 20 μL into white walled, 384-well microplates and incubated at 37° C. for the appropriate time prior to testing. • 3. cAMP modulation was determined using the DiscoverX HitHunter CAMP XS+assay.
• 1. For agonist determination, cells were incubated with sample to induce response. • 2. Media was aspirated from cells and replaced with 15 μL 2:1 HBSS/10 mM Hepes: CAMP XS+ Ab reagent. • 3. […]
• 1. […] Microplates were read following signal generation with a PerkinElmer Envision™ instrument for chemiluminescent signal detection.
• 1. Compound activity was analyzed using CBIS data analysis suite (ChemInnovation, CA). • 2. For Gs agonist mode assays, percentage activity is calculated using the following formula:
% Activity=100%×(mean RLU of test sample−mean RLU of vehicle control)/(mean RLU of MAX control−mean RLU of vehicle control). • 3. For Gs positive allosteric mode assays, percentage modulation is calculated using the following formula: http://www.eurofinsdiscoveryservices.com Confidential Jun. […]

With `O=C(COc1ccc(Cl)cc1)OCCNC12CC3CC(CC(C3)C1)C2` [Melafenoxate, 2-(1-adamantylamino)ethyl 2-(4-chlorophenoxy)acetate] the “binding with RXFP3 receptor (in words)” value was “weakly bind” and the “% Inhibition at 5*10^−5 M” value (5*10^−5 M) was 29.1%.

Reference: patent US20250082598A1, “Melafenoxate, 2-(1-adamantylamino)ethyl 2-(4-chlorophenoxy)acetate and derivatives thereof for treating circadian rhythm sleep disorders with neurodegenerative diseases such as Alzheimer's disease” (NLS Pharmaceutics AG, priority 2021, published 2025)
